Several values for one entry are separate records, joined by “and”; a condition that tells them apart may be missing. Identical values can stand only once.
How the values were obtained:
[1] = Tumour dosimetry by SPECT/CT, activity-based and anatomy-based tumour selection and delineation; format: in vivo, human; conditions: for Tumour absorbed dose lower than Cycle 1 value, on average: anatomy-based
Method: (§1) Multi-bed single-photon emission computed tomography (SPECT)/CT was conducted at 3-, 24-, 48- and 168-hours post-^177Lu-rhPSMA-10.1 administration in each treatment cycle for the estimation of organ and tumour absorbed doses in each patient. Prior to commencement of the study, each investigating site was required to complete a calibration of their dose calibrator and SPECT/CT system to ensure harmonised quantification of the imaging data. Quantitative reconstructions and all dosimetry analyses were carried out centrally by an independent dosimetry vendor (Radiopharmaceutical Imaging and Dosimetry LLC, Baltimore, MD).
The specific absorbed doses (Gy/GBq) in normal organs and tumours were determined using the Medical Internal Radiation Dose (MIRD) Committee S-value methodology. Individual patient organ masses, determined via CT delineation, were scaled to reflect deviations from reference phantom geometry. Cumulative organ absorbed doses (Gy) were calculated across all treatment cycles. Further details on dosimetry methodology are provided in the supplemental materials and have been reported in accordance with EANM guidance.
Approach one was an activity-based method equivalent to that used in most studies that have evaluated tumour dosimetry with ^177Lu-labelled PSMA RLT [28]. For this method, up to three tumours were selected according to their relative visual uptake on the 168-hour SPECT/CT. Lesion contouring for volume/mass was performed based on a 41% SUVmax threshold on the corresponding PSMA PET/CT. These contours were manually transferred onto the SPECT images, making minor adjustments where necessary to the contour margins accounting for any activity spill out on the SPECT. This is illustrated in Supplemental Figure S1. The second method was anatomy-based, with up to five tumours selected in a blinded fashion on CT according to RECIST v1.1 criteria. Lesion volume and mass were determined via manual contouring on the CT and then directly transferred to the SPECT images. Where a common lesion was selected across both methods, the difference in tumour volume resulting from the two contouring methods was calculated.
For the Cycle 1 tumour dosimetry, 36 lesions (27 bone and 9 lymph nodes) were analysed using the activity-based method, while 51 lesions (39 bone and 12 lymph nodes) were evaluated using the anatomy-based method. […] For each method, the mean tumour dose was determined by averaging the maximum tumour dose across all patients.

[2] = Venous whole-blood radioactivity measurement (gamma counter): blood clearance and red marrow absorbed dose; format: in vivo, human
Method: To assess the biodistribution and kinetics of radioactivity in individual tissues, whole blood and imaging-based radiation dosimetry were performed. Venous blood samples for radioactivity measurement were collected within the 30 min prior to ^177Lu-rhPSMA-10.1 administration, and at approximately 30 min, 1.5-, 4-, 24- and 48-hours post-administration in all treatment cycles. Samples were collected from the contralateral arm to that of the ^177Lu-rhPSMA-10.1 injection. Whole-blood concentrations were measured using a calibrated gamma counter to estimate both red marrow absorbed doses and blood clearance over time. All measurements were decay-corrected to the time of sample collection.
(§2) All continuous data are expressed as the mean (standard deviation [SD]) unless otherwise stated. All blood- and image-based pharmacokinetic analyses were conducted in Python and Excel. Effective half-lives for organs and tumours were calculated using a mono-exponential fit to the washout phase of the time–activity data.

[3] = Image-based effective and biological half-lives (mono-exponential fit to washout phase); format: in vivo, human; conditions: all cycles; for Biological Half-life, Tumours / Effective Half-life, Tumours: anatomy-based method
Method: as §1, §2
Based on exponential fits to image-derived time–activity washout data in individual tissues (Fig. 5), the biological and effective half-lives of ^177Lu-rhPSMA-10.1 in tumours and normal organs were estimated using the mean data from all patients across all cycles (Supplemental Table S3).
^aTumour half-life values were derived from the anatomy-based method and averaged across all tumours and cycles (n = 137).

[4] = set-up: method as in PMID 37770108; conditions: within the same patient; compassionate use program in Germany; cited from earlier work

CC(C)(C)[Si](F)(c1ccc(C(=O)NC[C@@H](NC(=O)CN2CCN(CC(=O)[O-])CCN(CC(=O)[O-])CCN(CC(=O)[O-])CC2)C(=O)N[C@H](CCCCNC(=O)CCC(=O)NCCC[C@@H](NC(=O)CC[C@H](NC(=O)N[C@@H](CCC(=O)O)C(=O)O)C(=O)O)C(=O)O)C(=O)O)cc1)C(C)(C)C.[177Lu+3] [^177Lu-rhPSMA-10.1]
Tumour absorbed dose lower than Cycle 1 value, on average ([1]; Cycle 2, 11 patients with multiple cycles): ~ 37% and 37% | Tumour absorbed dose lower than Cycle 1 value, on average ([1]; Cycle 3): ~ 56% and 56% | Maximum tumour absorbed dose, range across patients ([1]; activity method, Cycle 1): 2.00–25.7 Gy/GBq | Mean (SD) maximum tumour absorbed dose ([1]; activity method, Cycle 1): 8.87 Gy/GBq and 8.87 (6.71) Gy/GBq | Mean therapeutic index, ratio of tumour-to-kidney absorbed doses ([1]; activity method, Cycle 1): 32.1 | Mean tumour-to-salivary gland absorbed dose ratio ([1]; activity method, Cycle 1): 73.2 | Maximum tumour absorbed dose, range across patients ([1]; anatomy method, Cycle 1): 0.37–6.67 Gy/GBq | Mean (SD) maximum tumour absorbed dose ([1]; anatomy method, Cycle 1): 2.38 (1.78) Gy/GBq and 2.38 Gy/GBq | Mean (SD) Absorbed Dose, bone marrow (blood-based) ([2]; All Cycles): 0.032 Gy/GBq and 0.032 (0.010) Gy/GBq | Mean (SD) Absorbed Dose, bone marrow (blood-based) ([2]; Cycle 1, 13 patients): 0.031 (0.010) Gy/GBq | Effective half-life in blood ([2]; venous whole blood, based on mean patient levels, mean (SD)): 2.2 h | Biological Half-life, Kidneys ([3]; Mean of 13 patients): 44.9 hours | Biological Half-life, Salivary Glands ([3]; Mean of 13 patients): 64.6 hours | Effective Half-life, Kidneys ([3]; Mean of 13 patients): 33.7 h | Effective Half-life, Salivary Glands ([3]; Mean of 13 patients): 45.4 h | Biological Half-life, Tumours ([3]; Mean of 13 patients): 338 hours and 337.8 hours | Effective Half-life, Tumours ([3]; Mean of 13 patients): 91.4 h and 91 h | Biological Half-life, Kidneys ([3]; Patient 1): 123.6 hours | Biological Half-life, Salivary Glands ([3]; Patient 1): 120.2 hours | Effective Half-life, Kidneys ([3]; Patient 1): 69.6 h | Effective Half-life, Salivary Glands ([3]; Patient 1): 68.6 h | Biological Half-life, Tumours ([3]; Patient 1): 1692.5 hours | Effective Half-life, Tumours ([3]; Patient 1): 145.8 h | Biological Half-life, Kidneys ([3]; Patient 2): 52.3 hours | Biological Half-life, Salivary Glands ([3]; Patient 2): 54.2 hours | Effective Half-life, Kidneys ([3]; Patient 2): 39.4 h | Effective Half-life, Salivary Glands ([3]; Patient 2): 40.5 h | Biological Half-life, Tumours ([3]; Patient 2): 68.8 hours | Effective Half-life, Tumours ([3]; Patient 2): 48.1 h | Biological Half-life, Kidneys ([3]; Patient 3): 47.5 hours | Biological Half-life, Salivary Glands ([3]; Patient 3): 67.5 hours | Effective Half-life, Kidneys ([3]; Patient 3): 36.6 h | Effective Half-life, Salivary Glands ([3]; Patient 3): 47.4 h | Biological Half-life, Tumours ([3]; Patient 3): 305.1 hours | Effective Half-life, Tumours ([3]; Patient 3): 104.8 h | Biological Half-life, Kidneys ([3]; Patient 4): 35.9 hours | Biological Half-life, Salivary Glands ([3]; Patient 4): 84.7 hours | Effective Half-life, Kidneys ([3]; Patient 4): 29.3 h | Effective Half-life, Salivary Glands ([3]; Patient 4): 55.3 h | Biological Half-life, Tumours ([3]; Patient 4): 124.9 hours | Effective Half-life, Tumours ([3]; Patient 4): 70.1 h | Biological Half-life, Kidneys ([3]; Patient 5): 34.6 hours | Biological Half-life, Salivary Glands ([3]; Patient 5): 54.0 hours | Effective Half-life, Kidneys ([3]; Patient 5): 28.5 h | Effective Half-life, Salivary Glands ([3]; Patient 5): 40.3 h | Biological Half-life, Tumours ([3]; Patient 5): 168.9 hours | Effective Half-life, Tumours ([3]; Patient 5): 82.1 h | Biological Half-life, Kidneys ([3]; Patient 6): 38.7 hours | Biological Half-life, Salivary Glands ([3]; Patient 6): 61.3 hours | Effective Half-life, Kidneys ([3]; Patient 6): 31.2 h | Effective Half-life, Salivary Glands ([3]; Patient 6): 44.3 h | Biological Half-life, Tumours ([3]; Patient 6): 282.5 hours | Effective Half-life, Tumours ([3]; Patient 6): 102.0 h | Biological Half-life, Kidneys ([3]; Patient 7): 33.9 hours | Biological Half-life, Salivary Glands ([3]; Patient 7): 57.1 hours | Effective Half-life, Kidneys ([3]; Patient 7): 27.9 h | Effective Half-life, Salivary Glands ([3]; Patient 7): 42.1 h | Biological Half-life, Tumours ([3]; Patient 7): 316.6 hours | Effective Half-life, Tumours ([3]; Patient 7): 106.1 h | Biological Half-life, Kidneys ([3]; Patient 8): 34.9 hours | Biological Half-life, Salivary Glands ([3]; Patient 8): 61.5 hours | Effective Half-life, Kidneys ([3]; Patient 8): 28.6 h | Effective Half-life, Salivary Glands ([3]; Patient 8): 44.4 h | Biological Half-life, Tumours ([3]; Patient 8): 611.3 hours | Effective Half-life, Tumours ([3]; Patient 8): 126.6 h | Biological Half-life, Kidneys ([3]; Patient 9): 32.3 hours | Biological Half-life, Salivary Glands ([3]; Patient 9): 47.7 hours | Effective Half-life, Kidneys ([3]; Patient 9): 26.8 h | Effective Half-life, Salivary Glands ([3]; Patient 9): 36.7 h | Biological Half-life, Tumours ([3]; Patient 9): 204.8 hours | Effective Half-life, Tumours ([3]; Patient 9): 89.7 h | Biological Half-life, Kidneys ([3]; Patient 10): 28.7 hours | Biological Half-life, Salivary Glands ([3]; Patient 10): 59.0 hours | Effective Half-life, Kidneys ([3]; Patient 10): 24.3 h | Effective Half-life, Salivary Glands ([3]; Patient 10): 43.1 h | Biological Half-life, Tumours ([3]; Patient 10): 170.2 hours | Effective Half-life, Tumours ([3]; Patient 10): 82.4 h | Biological Half-life, Kidneys ([3]; Patient 11): 35.3 hours | Biological Half-life, Salivary Glands ([3]; Patient 11): 61.7 hours | Effective Half-life, Kidneys ([3]; Patient 11): 28.9 h | Effective Half-life, Salivary Glands ([3]; Patient 11): 44.5 h | Biological Half-life, Tumours ([3]; Patient 11): 148.2 hours | Effective Half-life, Tumours ([3]; Patient 11): 76.8 h | Biological Half-life, Kidneys ([3]; Patient 12): 54.5 hours | Biological Half-life, Salivary Glands ([3]; Patient 12): 53.6 hours | Effective Half-life, Kidneys ([3]; Patient 12): 40.6 h | Effective Half-life, Salivary Glands ([3]; Patient 12): 40.1 h | Biological Half-life, Tumours ([3]; Patient 12): 152.4 hours | Effective Half-life, Tumours ([3]; Patient 12): 78.0 h | Biological Half-life, Kidneys ([3]; Patient 13): 31.6 hours | Biological Half-life, Salivary Glands ([3]; Patient 13): 57.8 hours | Effective Half-life, Kidneys ([3]; Patient 13): 26.4 h | Effective Half-life, Salivary Glands ([3]; Patient 13): 42.4 h | Biological Half-life, Tumours ([3]; Patient 13): 145.7 hours | Effective Half-life, Tumours ([3]; Patient 13): 76.2 h | Radiation dose to the tumour relative to ^177Lu-PSMA-I&T, fold greater [4]: up to 8 fold
